Measured values reported in PubChem BioAssay (NCI).
“And” between values parts separate entries of the source, which are not always exact repeats. Equal entries are not always repeated.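 Cells were grown in 96-well plates and exposed to each compound for 48 hours at five concentrations; endpoints were interpolated linearly between bracketing concentrations, or set to the highest concentration if not reached. Here, GI50 denotes the concentration required for 50% inhibition of growth. TGI: total growth inhibition.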

Key:
Assay in all cases: NCI tumour cell line growth inhibition, 48 h
M19-MEL melanoma = test system: M19-MEL melanoma
DLD-1 colon = test system: DLD-1 colon
KM20L2 colon = test system: KM20L2 colon
HOP-18 NSCLC = test system: HOP-18 NSCLC
RXF-631 renal = test system: RXF-631 renal
P388 leukemia = test system: P388 leukemia
HS 578T breast = test system: HS 578T breast
MDA-N = test system: MDA-N
P388/ADR leukemia = test system: P388/ADR leukemia
PC-3 prostate = test system: PC-3 prostate

Row | SMILES | TGI (M19-MEL melanoma) [µM] | TGI (DLD-1 colon) [µM] | TGI (KM20L2 colon) [µM] | TGI (HOP-18 NSCLC) [µM] | TGI (RXF-631 renal) [µM] | further results
1 | COc1ccc(Nc2nc3c(N)cc(C(F)(F)F)cc3nc2-c2ccccc2)cc1 | > 100 | > 100 | > 100 | > 100 | > 100 | 
2 | Nc1ncn([C@@H]2C=C(CO)C(O)C2O)c(=O)n1 (stereo partly specified) | > 100 | > 100 | > 100 | > 100 | > 100 | 
3 | Cc1ccc(NC(=O)CCC(=O)C2CC(=O)CCC2=O)cc1C (stereo unspecified) | > 100 | > 100 | > 100 | > 100 | > 100 | 
4 | CN(C)CC1CCCC(CN(C)C)C1=O (stereo unspecified) | 7.24 | 4.14 | 13.2 | 3.32 |  | TGI (P388 leukemia): 2.13 µM; GI50 (HS 578T breast): 3.26 µM and 26.5 µM; TGI (HS 578T breast): > 100 µM and 80.3 µM; TGI (MDA-N): 25.6 µM and 28.4 µM; TGI (P388/ADR leukemia): 0.226 µM; GI50 (PC-3 prostate): 18.7 µM and 4.98 µM; TGI (PC-3 prostate): 33.4 µM and 16.9 µM
5 | COC1C2c3ccccc3C(C#N)(Cc3ccc4c(c32)OCO4)N1C(=O)c1ccccc1 (stereo unspecified) |  | > 100 | > 100 | > 100 | > 100 | 
6 | CCN1N=CSC12C(=O)N(c1ccccc1)C(=O)N2c1ccccc1 (stereo unspecified) |  | > 100 | > 100 | > 100 | > 100 | 
7 | O=C1/C(=C/c2ccccc2Cl)COc2ccccc21 | 34.2 | 29.4 | 38.1 | 24 | 36.3 | 
8 | Nc1cc2c3c(cccc3c1)C(=O)N(CCN1CCN(CCN3C(=O)c4cccc5cc(N)cc(c45)C3=O)CC1)C2=O | > 100 |  | > 100 | > 100 | > 100 | 
9 | Cn1c(=O)c2c(nc3n2C(CCl)CO3)n(C)c1=O (stereo unspecified) | > 100 | > 100 |  | > 100 | > 100 | 
10 | C=C1C(=O)C23C(O)C1CCC2C12CO[C@]3(O)[C@@H](O)C1C(C)(C)CCC2O (stereo partly specified) | 23.7 | 33.8 | 30.5 | 25.5 | 34.5 | 
11 | CC1(C)CC[C@]2(C(=O)O)CCC3(C)C(=CCC4[C@@]5(C)CC[C@H](OC6OCC(O)C(O)C6OC6OC(CO)C(O)C(O)C6O)C(C)(C)C5CC[C@]43C)C2C1 (stereo partly specified) | 3.46 | 22.7 | 3.7 | 3.48 | 3.21 | 
12 | COc1ccc(C=O)c(N(C)C(=O)C(C)(C)C)c1 | > 100 |  | > 100 | > 100 | > 100 | 
13 | Clc1ccc(C2=NN(c3ccccc3)C3c4cc(Br)ccc4OCC23)cc1 (stereo unspecified) | > 100 | > 100 | > 100 | > 100 | > 100 | 
14 | C[CH2][Sn]([CH2]C)([O]C(=O)c1cc(OC)c(OC)c(OC)c1)[O][Sn]([CH2]C)([CH2]C)[O]C(=O)c1cc(OC)c(OC)c(OC)c1 | > 100 | > 74.1 | > 100 | 42.4 | 53.7 | GI50 (M19-MEL melanoma): 31.3 µM; GI50 (DLD-1 colon): 27.9 µM; GI50 (KM20L2 colon): 64.6 µM; GI50 (HOP-18 NSCLC): 22.2 µM; GI50 (RXF-631 renal): 24.5 µM
